Measurements published in US8486996B2, “Aroylfuranes and aroylthiophenes” (Basilea Pharmaceutica AG, priority 2006, dated 2013).
Like-named read-outs stand apart in the source and are kept apart here.

Key:
Format in all cases: cell-based
tumor cells [1] = test: MTS proliferation assay (72 h read-out)
Description: (§1) B) MTS Proliferation Assay
(§2) The assay is performed in 96 well tissue culture plates. The cells (range: 1.5*10^3-10^4) are seeded out in 80 μl complete medium 24 h prior to compound treatment. The test compounds are added in 20 μl complete medium containing max 5% DMSO. The final compound concentrations in the assays are in the range of 0.001 μM-10 μM. The assay plates are incubated for 72 h at culture conditions. The MTS reagent is prepared according to the manufacturer's protocol (Promega G1111). 20 μl MTS reagent are added to each well; the assay plates are quickly spun and incubated for another 3 h at culture conditions. Subsequently, the plates are shortly shaked and absorption measured with a microplate-reader at 492 nm. The scores A, B, C and D are explained at the end of the Table.

[2] = MTS proliferation assay (72 h read-out); details: MRC5 cells
Description: as §1, §2

tumor cells [3] = test: Hoechst 33342 nuclear staining (48 h read-out)
Description: (§3) A) Hoechst 33342 Nuclear Staining
(§4) This assay is performed in 96 well tissue culture plates. Appropriate number of cells (adherent cells: 3-5*10^3, suspension cells: 8-10*10^3) are being seeded out in 80 μl complete medium. Adherent cells are incubated for 24 h for proper spreading out before addition of test compounds while suspension cells are immediately treated with test compounds after seeding out. The test compounds are added in 20 μl complete medium containing max 5% DMSO. The final compound concentrations in the assays are in the range of 0.001 μM-10 μM. After 24 h or 48 h incubation at culture conditions, 10 μl medium containing Hoechst 33342 dye (Sigma B-2261) at 2-5 μg/ml are added to each well. The assay plates are then further incubated for 30 minutes and subsequently analyzed with a standard inverted fluorescence microscope.
(§5) The readout allows the determination of the fraction of apoptotic nuclei as well as other morphological criteria specific for apoptosis as a function of the treatment. The scores A, B, C and D are explained at the end of the Table.

[4] = Hoechst 33342 nuclear staining (48 h read-out)
Description: as §3, §4, §5

tumor cells [5] = test: Mitochondrial membrane potential, JC-1 (read-out 48 h); details: JC-1, 48 h
Description: (§6) D) Mitochondrial Membrane Potential
as §4, with “The final compound concentrations in the assays are in the range of 0.001 μM-10 μM.” left out, “JC-1 (Molecular Probes, T-3168)” for “Hoechst 33342 dye (Sigma B-2261)”, “microscope by using the FITC and TRITC filters.” for “microscope.”
(§7) The readout allows the determination of the fraction of cells which show a dissipation of the mitochondrial membrane potential strongly indicating an apoptotic cell death as a function of the treatment. The scores A, B, C and D are explained at the end of the Table.

[6] = as above; details: PBL, JC-1, 48 h
Description: as §6
as §4, with “The final compound concentrations in the assays are in the range of 0.001 μM-10 μM.” left out, “JC-1 (Molecular Probes, T-3168)” for “Hoechst 33342 dye (Sigma B-2261)”, “microscope by using the FITC and TRITC filters.” for “microscope.”
as §7

[7] = Homo sapiens, HT-1080, HT1080 cells, read-out: MTS proliferation assay IC50, HT1080
[8] = Homo sapiens, HeLa cells, read-out: MTS proliferation assay IC50, HeLa
[9] = Jily cells, read-out: MTS proliferation assay IC50, Jily
[10] = Homo sapiens, HeLa cells, read-out: Hoechst 33342 nuclear staining EC50, HeLa
[11] = Homo sapiens, Jurkat cells, read-out: Hoechst 33342 nuclear staining EC50, Jurkat
[12] = Jily cells, read-out: Hoechst 33342 nuclear staining EC50, Jily
[13] = Homo sapiens, MRC5 cells, read-out: Hoechst 33342 nuclear staining EC50, MRC5
[14] = PBL, read-out: Hoechst 33342 nuclear staining EC50, PBL
[15] = Homo sapiens, HeLa cells, read-out: Mitochondrial membrane potential (read-out 48 h) HeLa
[16] = Homo sapiens, Jurkat cells, read-out: Mitochondrial membrane potential (read-out 48 h) Jurkat
[17] = Homo sapiens, MCF7 cells, read-out: Mitochondrial membrane potential (read-out 48 h) MCF7
[18] = Jily cells, read-out: Mitochondrial membrane potential (read-out 48 h) Jily
[19] = Homo sapiens, Jurkat cells, read-out: MTS proliferation assay IC50, Jurkat
[20] = HT1080 cells, read-out: MTS proliferation assay IC50, HT1080
[21] = HeLa cells, read-out: MTS proliferation assay IC50, HeLa
[22] = Jurkat cells, read-out: MTS proliferation assay IC50, Jurkat
[23] = HeLa cells, read-out: Hoechst 33342 nuclear staining EC50, HeLa
[24] = Jurkat cells, read-out: Hoechst 33342 nuclear staining EC50, Jurkat
[25] = MRC5 cells, read-out: Hoechst 33342 nuclear staining EC50, MRC5
[26] = HeLa cells, read-out: Mitochondrial membrane potential (read-out 48 h) HeLa
[27] = Jurkat cells, read-out: Mitochondrial membrane potential (read-out 48 h) Jurkat
[28] = MCF7 cells, read-out: Mitochondrial membrane potential (read-out 48 h) MCF7

Compound | IC50 (tumor cells [1]; [7]) | IC50 (tumor cells [1]; [8]) | IC50 (tumor cells [1]; [9]) | IC50 ([2]; Homo sapiens) | EC50 (tumor cells [3]; [10]) | EC50 (tumor cells [3]; [11]) | EC50 (tumor cells [3]; [12]) | EC50 [4, 14] | EC50 (tumor cells [5]; [18]) | EC50 [6] | IC50 (tumor cells [1]; [20]) | IC50 (tumor cells [1]; [21]) | IC50 (tumor cells [1]; [22]) | IC50 [2] | EC50 (tumor cells [3]; [23]) | EC50 (tumor cells [3]; [24]) | EC50 [4, 25] | EC50 (tumor cells [5]; [26]) | EC50 (tumor cells [5]; [27]) | EC50 (tumor cells [5]; [28]) | also measured
Nc1c(C(=O)c2ccccc2OCc2ccccc2)oc2ccc(Cl)cc12 [Example 1, 3-Amino-5-chloro-2-(2-benzyloxybenzoyl)-benzofuran] | > 1 µM | > 1 µM | 0.1 to 1 µM | > 1 µM | > 1 µM | > 1 µM | > 1 µM | > 1 µM | > 1 µM | > 1 µM | – | – | – | – | – | – | – | – | – | – | EC50 [4, 13]: > 1 µM; EC50 (tumor cells [5]; [15]): > 1 µM; EC50 (tumor cells [5]; [16]): 0.1 to 1 µM; EC50 (tumor cells [5]; [17]): > 1 µM
CCOc1ccccc1C(=O)c1oc2c(C)cccc2c1N [Example 5, 3-Amino-7-methyl-2-(2-ethoxybenzoyl)-benzofuran] | > 1 µM | > 1 µM | 0.1 to 1 µM | > 1 µM | > 1 µM | 0.1 to 1 µM | > 1 µM | > 1 µM | > 1 µM | > 1 µM | – | – | – | – | – | – | – | – | – | – | IC50 (tumor cells [1]; [19]): 0.1 to 1 µM; EC50 [4, 13]: > 1 µM; EC50 (tumor cells [5]; [15]): > 1 µM; EC50 (tumor cells [5]; [16]): 0.1 to 1 µM; EC50 (tumor cells [5]; [17]): > 1 µM
Nc1c(C(=O)c2ccccc2OCCN2CCOCC2)oc2ccc(Cl)cc12 [Example 10] | – | – | > 1 µM | – | – | – | > 1 µM | > 1 µM | > 1 µM | > 1 µM | > 1 µM | > 1 µM | > 1 µM | > 1 µM | > 1 µM | > 1 µM | > 1 µM | > 1 µM | > 1 µM | > 1 µM | –
CN(C)CCOc1ccccc1C(=O)c1oc2ccc(Cl)cc2c1N [Example 11] | – | – | > 1 µM | – | – | – | > 1 µM | > 1 µM | > 1 µM | > 1 µM | > 1 µM | > 1 µM | > 1 µM | > 1 µM | > 1 µM | > 1 µM | > 1 µM | > 1 µM | > 1 µM | > 1 µM | –
CCOc1ccc(OCC)c(C(=O)c2oc3ccc(Cl)cc3c2N)c1 [Example 19] | 0.1 to 1 µM | 0.1 to 1 µM | 0.1 to 1 µM | 0.1 to 1 µM | 0.1 to 1 µM | 0.1 to 1 µM | 0.1 to 1 µM | > 1 µM | 0.1 to 1 µM | > 1 µM | – | – | – | – | – | – | – | – | – | – | EC50 [4, 13]: 0.1 to 1 µM; EC50 (tumor cells [5]; [15]): 0.1 to 1 µM; EC50 (tumor cells [5]; [16]): 0.1 to 1 µM; EC50 (tumor cells [5]; [17]): 0.1 to 1 µM
CCOc1ccc(-n2cccc2)cc1C(=O)c1oc2ccc(Cl)cc2c1N [Example 22] | – | – | 0.1 to 1 µM | – | – | – | 0.1 to 1 µM | > 1 µM | 0.1 to 1 µM | > 1 µM | 0.1 to 1 µM | 0.1 to 1 µM | 0.1 to 1 µM | 0.1 to 1 µM | 0.1 to 1 µM | 0.1 to 1 µM | 0.1 to 1 µM | 0.1 to 1 µM | 0.1 to 1 µM | > 1 µM | –
CCOc1ccccc1C(=O)c1oc2ccc(Cl)cc2c1O [Example 32, 5-Chloro-2-(2-ethoxybenzoyl)-3-hydroxybenzofuran] | > 1 µM | > 1 µM | > 1 µM | > 1 µM | > 1 µM | > 1 µM | > 1 µM | > 1 µM | > 1 µM | > 1 µM | – | – | – | – | – | – | – | – | – | – | IC50 (tumor cells [1]; [19]): > 1 µM; EC50 [4, 13]: > 1 µM; EC50 (tumor cells [5]; [15]): > 1 µM; EC50 (tumor cells [5]; [16]): > 1 µM; EC50 (tumor cells [5]; [17]): > 1 µM
COc1ccc2oc(C(=O)c3cccnc3N3CCOCC3)cc2c1 [Example 39, 5-Methoxy-2-(2-morpholino-3-pyridylcarbonyl)-benzofuran] | 0.01 to 0.1 µM | 0.01 to 0.1 µM | 0.01 to 0.1 µM | 0.01 to 0.1 µM | 0.01 to 0.1 µM | 0.01 to 0.1 µM | 0.01 to 0.1 µM | > 1 µM | 0.01 to 0.1 µM | > 1 µM | – | – | – | – | – | – | – | – | – | – | IC50 (tumor cells [1]; [19]): 0.01 to 0.1 µM; EC50 [4, 13]: 0.01 to 0.1 µM; EC50 (tumor cells [5]; [15]): 0.01 to 0.1 µM; EC50 (tumor cells [5]; [16]): 0.01 to 0.1 µM; EC50 (tumor cells [5]; [17]): 0.1 to 1 µM
CCOc1ccccc1C(=O)c1oc2ccc(I)cc2c1N [Example 43] | – | – | > 1 µM | – | – | – | > 1 µM | > 1 µM | > 1 µM | > 1 µM | > 1 µM | > 1 µM | > 1 µM | > 1 µM | > 1 µM | > 1 µM | > 1 µM | > 1 µM | > 1 µM | > 1 µM | –
CCOc1ccc(C(=O)O)cc1C(=O)c1oc2ccc(Cl)cc2c1N [Example 44] | – | – | > 1 µM | – | – | – | > 1 µM | > 1 µM | > 1 µM | > 1 µM | > 1 µM | > 1 µM | > 1 µM | > 1 µM | > 1 µM | > 1 µM | > 1 µM | > 1 µM | > 1 µM | > 1 µM | –
CCOc1ccccc1C(=O)c1oc2ccc(F)cc2c1N [Example 45] | – | – | > 1 µM | – | – | – | > 1 µM | > 1 µM | > 1 µM | > 1 µM | > 1 µM | > 1 µM | > 1 µM | > 1 µM | > 1 µM | > 1 µM | > 1 µM | > 1 µM | > 1 µM | > 1 µM | –
CCOc1ccc(S(=O)(=O)N(C)C)cc1C(=O)c1oc2ccc(Cl)cc2c1N [Example 46] | – | – | > 1 µM | – | – | – | > 1 µM | > 1 µM | > 1 µM | > 1 µM | > 1 µM | > 1 µM | > 1 µM | > 1 µM | > 1 µM | > 1 µM | > 1 µM | > 1 µM | > 1 µM | > 1 µM | –
COc1ccc2oc(C(=O)c3cc(F)ccc3N3CCCCC3)cc2c1 [Example 95] | – | – | 0.01 to 0.1 µM | – | – | – | – | – | – | – | 0.01 to 0.1 µM | 0.01 to 0.1 µM | 0.01 to 0.1 µM | 0.01 to 0.1 µM | – | – | – | – | – | – | –
CCOc1ccc2oc(C(=O)c3cc(F)ccc3N3CC=CCC3)cc2c1 [Example 111] | – | – | – | – | – | – | < 0.01 µM | > 1 µM | < 0.01 µM | > 1 µM | – | – | – | – | 0.01 to 0.1 µM | < 0.01 µM | 0.01 to 0.1 µM | 0.01 to 0.1 µM | < 0.01 µM | 0.01 to 0.1 µM | –
O=C(c1cc2cc(O)ccc2o1)c1cc(F)ccc1N1CC=CCC1 [Example 112] | – | – | – | – | – | – | 0.01 to 0.1 µM | > 1 µM | 0.01 to 0.1 µM | > 1 µM | – | – | – | – | 0.01 to 0.1 µM | 0.01 to 0.1 µM | 0.01 to 0.1 µM | 0.01 to 0.1 µM | 0.01 to 0.1 µM | 0.01 to 0.1 µM | –
N#Cc1cnc2sc(C(=O)c3cc(F)ccc3N3CCOCC3)c(N)c2c1 [Example 136] | – | – | 0.1 to 1 µM | – | – | – | – | – | 0.1 to 1 µM | – | 0.1 to 1 µM | 0.1 to 1 µM | 0.1 to 1 µM | – | > 1 µM | 0.1 to 1 µM | > 1 µM | > 1 µM | 0.1 to 1 µM | > 1 µM | –
